TGI and GI50 data for eight compounds are collected here from PubChem BioAssay (NCI).

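Five concentrations, 48 hours, 96-well plates. GI50 marks 50% less growth. At the TGI there is no net growth.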

What all share (assay): DTP human tumour cell line panel, 48 h
The subject of experiment [1] is BT-549 breast.
Experiment [2] deals with NCI/ADR-RES ovarian.
Experiment [3] concerns SNB-19 CNS.
Experiment [4] relates to NCI-H23 lung.
In experiment [5] the test system is CAKI-1 renal.
In experiment [6] the test system is SNB-75 CNS.
Experiment [7] relates to LOX IMVI melanoma.
Experiment [8] deals with MOLT-4 leukemia.
The test system of experiment [9] is OVCAR-8 ovarian.
The test system of experiment [10] is HOP-92 NSCLC.

A word on the TGI: it is the concentration giving total growth inhibition. `O=C(O)c1nn(-c2ccc(Cl)cc2)c2c1C(=O)c1ccccc1C2=O`: the TGI is more than 100 µM in experiment [1]; more than 100 µM in experiment [2]; more than 100 µM in experiment [3]; more than 100 µM in experiment [4]; more than 100 µM in [5]; 62.3 µM in [6]. Further, the TGI was more than 100 µM in experiment [7], 88 µM in experiment [8], more than 100 µM in [9] and more than 100 µM in experiment [10].
What is called GI50 is the concentration at which growth is held to half of that of the control. `COc1nc2c(c(=O)n1C)CN(c1ccccc1)C(=O)CN2C`: the GI50 in [1] is 33.2 µM; in [2] it was 72.2 µM; in [3], 60.4 µM; in experiment [4], 95.1 µM; in experiment [5], 20.1 µM; in experiment [6] it was 48.9 µM. Further, the GI50 in experiment [7] was more than 100 µM; in experiment [8], 33.9 µM; in experiment [9], 74.5 µM; in experiment [10] it was 0.852 µM. The TGI in experiment [1], in experiment [2], in experiment [3], in [4], in experiment [5] and in experiment [6] was more than 100 µM in each case. Besides, the total growth inhibition concentration (TGI) in experiment [7] was more than 100 µM; in experiment [8] it was more than 100 µM; in experiment [9], more than 100 µM; in experiment [10] it was 55.1 µM.
In the case of `CN1CCN(c2ccncc2S(=O)(=O)N2CCN(C)CC2)CC1`, the TGI in experiment [1], in [2], in [3], in [4], in experiment [5] and in [6] was more than 100 µM throughout. Besides, the TGI in [7], in experiment [9] and in [10] was more than 100 µM in each case.
`Cc1cc2[nH]c(=O)c3c4ncccc4cn3c2cc1C`: the GI50 in experiment [1] is 14.5 µM; in experiment [2], 2.93 µM; in experiment [3], 5.48 µM; in experiment [4], 8.86 µM; in [5] it was 3.21 µM; in experiment [6] it was 3.3 µM. Also, the GI50 is 1.72 µM in [7], 3.54 µM in [8], 2.89 µM in experiment [9] and 2.94 µM in experiment [10]. In addition, the TGI in [1] is 41.4 µM; in [2], more than 100 µM; in [3], more than 100 µM; in [4] it was more than 100 µM; in experiment [5] it was more than 100 µM; in [6] it was 15.7 µM. For the same compound, the TGI is 3.34 µM in experiment [7], more than 100 µM in experiment [8], more than 100 µM in experiment [9] and 16.3 µM in [10].
With `C#Cc1cccc(Nc2nc(C)nc3cc(NC(=O)CCl)ccc23)c1`, the GI50 in [1] is 1.32 µM; in experiment [2], 3.42 µM; in [3] it was 1.29 µM; in experiment [4] it was 2.35 µM; in experiment [5], 2.97 µM; in [6] it was 1.09 µM. In addition, the GI50 in experiment [7] is 0.424 µM; in experiment [8], 0.719 µM; in experiment [9], 2.07 µM; in experiment [10], 0.67 µM. Further, the TGI in experiment [1] is 5.31 µM; in experiment [2], 12.5 µM; in experiment [3], 4.29 µM; in [4] it was 7.03 µM; in [5], 6.23 µM; in [6], 4.34 µM. Also, the TGI is 0.95 µM in experiment [7], 2.27 µM in experiment [8], 6.12 µM in experiment [9] and 1.89 µM in [10].
For `COc1ccc(-c2oc3ncnc(N)c3c2-c2ccc(NC(=O)Nc3cc(C(F)(F)F)ccc3F)cc2)cc1`, the GI50 is 1.82 µM in [1]; 1.17 µM in experiment [2]; 1.61 µM in [3]; 0.823 µM in experiment [4]; 0.838 µM in experiment [5]; 1.51 µM in [6]. The GI50 in experiment [7] is 0.658 µM; in experiment [8], 1.64 µM; in experiment [9], 0.79 µM; in [10], 0.808 µM. Further, the total growth inhibition concentration (TGI) in experiment [1] stood at 5.08 µM; in [2], 6.24 µM; in [3], 12.2 µM; in experiment [4], 3.26 µM; in experiment [5], 6.69 µM; in [6] it was 4.35 µM. Moreover, the TGI in experiment [7] is 3.21 µM; in experiment [8] it was 8.98 µM; in experiment [9] it was 3.73 µM; in experiment [10], 5.4 µM.
Turning to `COc1cc(OCCCN2CCCC2)ccc1Nc1ncc(Cl)c(Nc2ccccc2P(C)(C)=O)n1`, the GI50 in experiment [1] was 3.86 µM; in experiment [2] it was 12.6 µM; in experiment [3] it was 4.11 µM; in experiment [4] it was 1.98 µM; in [5], 2.02 µM; in [6], 2.55 µM. For the same compound, the GI50 in experiment [7] was 1.32 µM; in [8], 3.95 µM; in experiment [9], 3.65 µM; in [10], 0.163 µM. The TGI in experiment [1] is 11.7 µM; in experiment [2] it was more than 77.4 µM; in [3] it was 34.3 µM; in experiment [4], 13.2 µM; in experiment [5], 5.64 µM; in experiment [6], 11.8 µM. The TGI in experiment [7] was 4.4 µM; in experiment [8], 26 µM; in experiment [9], 38.8 µM; in experiment [10], 1.25 µM.
Take `N#Cc1ccc2[nH]cc(Cc3c[nH]c4ccc(C#N)cc34)c2c1`: the GI50 in experiment [1] is 9.57 µM; in experiment [2], 12.5 µM; in experiment [3] it was 17.2 µM; in experiment [4], 15.2 µM; in [5] it was 8.92 µM; in experiment [6], 20.4 µM. Also, the GI50 in experiment [7] was 6.99 µM; in experiment [8], 7.53 µM; in [9] it was 10.2 µM; in experiment [10] it was 8.52 µM. Further, the TGI in experiment [1] was 20.7 µM; in experiment [2], 36.3 µM; in experiment [3] it was more than 50 µM; in experiment [4], 35.4 µM; in [5] it was 22.1 µM; in [6], more than 50 µM. In addition, the TGI was 18.9 µM in experiment [7], 19.5 µM in experiment [8], 28.2 µM in experiment [9] and 22.8 µM in experiment [10].
